Reference: PubChem BioAssay AID1963979 (Molecular Pharmacology Branch, DTP, NCI, 2024)

Tested on: 361931-004-R-J1-PDC multicell spheroid viability
Assay: Anticancer human tumor 361931-004-R-J1-PDC patient-derived colon adenocarcinoma cell line growth inhibition [PI3K]
Details: for IC50: curve of first compound; for viability, T/C: stronger effect = lower value
Method in brief: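 Combination activity was assessed by viability in multicellular tumor spheroids carrying HUVEC and MSC components. Agents were tested with PI3K inhibitors from a Cmax-based top dose (or 10 microM) downward in half-log increments.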
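Also: spheroids exposed to agents for seven days before readout.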

`CNC(=O)c1ccc(N2C(=S)N(c3ccc(C#N)c(C(F)(F)F)c3)C(=O)C2(C)C)cc1F` + CC(Nc1ncnc2nc[nH]c12)c1cc2cccc(Cl)c2c(=O)n1-c1ccccc1 was tested, and the IC50 (second compound 0.0316 µM) was > 10 µM, the IC50 (second compound 0.1 µM) was > 10 µM and the IC50 (second compound 0.316 µM) was > 10 µM. The IC50 (second compound 1 µM) was > 10 µM, the IC50 (second compound 3.16 µM) was > 10 µM and the IC50 (second compound 10 µM) was > 10 µM. For the same compound, the viability, T/C (second compound 0.0316 µM, first compound 0.0316 µM) was 97.8%, the viability, T/C (second compound 0.0316 µM, first compound 0.1 µM) was 103% and the viability, T/C (second compound 0.0316 µM, first compound 0.316 µM) was 97.7%. It also gave a viability, T/C (second compound 0.0316 µM, first compound 1 µM) of 96.6%, a viability, T/C (second compound 0.0316 µM, first compound 3.16 µM) of 103% and a viability, T/C (second compound 0.0316 µM, first compound 10 µM) of 85.7%. It also gave a viability, T/C (second compound 0.1 µM, first compound 0.0316 µM) of 110%, a viability, T/C (second compound 0.1 µM, first compound 0.1 µM) of 102% and a viability, T/C (second compound 0.1 µM, first compound 0.316 µM) of 97.8%. It also gave a viability, T/C (second compound 0.1 µM, first compound 1 µM) of 93.7%, a viability, T/C (second compound 0.1 µM, first compound 3.16 µM) of 106% and a viability, T/C (second compound 0.1 µM, first compound 10 µM) of 103%. For the same compound, the viability, T/C (second compound 0.316 µM, first compound 0.0316 µM) was 102%, the viability, T/C (second compound 0.316 µM, first compound 0.1 µM) was 93% and the viability, T/C (second compound 0.316 µM, first compound 0.316 µM) was 97.9%. The viability, T/C (second compound 0.316 µM, first compound 1 µM) was 105%, the viability, T/C (second compound 0.316 µM, first compound 3.16 µM) was 101% and the viability, T/C (second compound 0.316 µM, first compound 10 µM) was 97.3%. The viability, T/C (second compound 1 µM, first compound 0.0316 µM) was 101%, the viability, T/C (second compound 1 µM, first compound 0.1 µM) was 106% and the viability, T/C (second compound 1 µM, first compound 0.316 µM) was 99.4%. The viability, T/C (second compound 1 µM, first compound 1 µM) was 104%, the viability, T/C (second compound 1 µM, first compound 3.16 µM) was 106% and the viability, T/C (second compound 1 µM, first compound 10 µM) was 97.2%. The viability, T/C (second compound 3.16 µM, first compound 0.0316 µM) was 101%, the viability, T/C (second compound 3.16 µM, first compound 0.1 µM) was 109% and the viability, T/C (second compound 3.16 µM, first compound 0.316 µM) was 97.1%. For the same compound, the viability, T/C (second compound 3.16 µM, first compound 1 µM) was 101%, the viability, T/C (second compound 3.16 µM, first compound 3.16 µM) was 104% and the viability, T/C (second compound 3.16 µM, first compound 10 µM) was 93.4%. The viability, T/C (second compound 10 µM, first compound 0.0316 µM) was 107%, the viability, T/C (second compound 10 µM, first compound 0.1 µM) was 105% and the viability, T/C (second compound 10 µM, first compound 0.316 µM) was 104%. The viability, T/C (second compound 10 µM, first compound 1 µM) was 94.2%, the viability, T/C (second compound 10 µM, first compound 3.16 µM) was 112% and the viability, T/C (second compound 10 µM, first compound 10 µM) was 96.3%.
With `Cn1cnc2c(F)c(Nc3ccc(Br)cc3Cl)c(C(=O)NOCCO)cc21` + CC(Nc1ncnc2nc[nH]c12)c1cc2cccc(Cl)c2c(=O)n1-c1ccccc1 the IC50 (second compound 0.0316 µM) was > 3 µM, the IC50 (second compound 0.1 µM) was > 3 µM and the IC50 (second compound 0.316 µM) was > 3 µM. The IC50 (second compound 1 µM) was > 3 µM, the IC50 (second compound 3.16 µM) was 2.88 µM and the IC50 (second compound 10 µM) was 1.67 µM. The viability, T/C (second compound 0.0316 µM, first compound 0.00949 µM) was 98.1%, the viability, T/C (second compound 0.0316 µM, first compound 0.03 µM) was 95.3% and the viability, T/C (second compound 0.0316 µM, first compound 0.0949 µM) was 94%. For the same compound, the viability, T/C (second compound 0.0316 µM, first compound 0.3 µM) was 87.4%, the viability, T/C (second compound 0.0316 µM, first compound 0.949 µM) was 82% and the viability, T/C (second compound 0.0316 µM, first compound 3 µM) was 59.1%. For the same compound, the viability, T/C (second compound 0.1 µM, first compound 0.00949 µM) was 109%, the viability, T/C (second compound 0.1 µM, first compound 0.03 µM) was 96.2% and the viability, T/C (second compound 0.1 µM, first compound 0.0949 µM) was 94.2%. It also gave a viability, T/C (second compound 0.1 µM, first compound 0.3 µM) of 82.9%, a viability, T/C (second compound 0.1 µM, first compound 0.949 µM) of 87.4% and a viability, T/C (second compound 0.1 µM, first compound 3 µM) of 61.7%. For the same compound, the viability, T/C (second compound 0.316 µM, first compound 0.00949 µM) was 105%, the viability, T/C (second compound 0.316 µM, first compound 0.03 µM) was 102% and the viability, T/C (second compound 0.316 µM, first compound 0.0949 µM) was 88.8%. It also gave a viability, T/C (second compound 0.316 µM, first compound 0.3 µM) of 85.8%, a viability, T/C (second compound 0.316 µM, first compound 0.949 µM) of 82.9% and a viability, T/C (second compound 0.316 µM, first compound 3 µM) of 58.1%. The viability, T/C (second compound 1 µM, first compound 0.00949 µM) was 97.9%, the viability, T/C (second compound 1 µM, first compound 0.03 µM) was 94.4% and the viability, T/C (second compound 1 µM, first compound 0.0949 µM) was 93.3%. For the same compound, the viability, T/C (second compound 1 µM, first compound 0.3 µM) was 79.5%, the viability, T/C (second compound 1 µM, first compound 0.949 µM) was 81.4% and the viability, T/C (second compound 1 µM, first compound 3 µM) was 59.7%. It also gave a viability, T/C (second compound 3.16 µM, first compound 0.00949 µM) of 92.8%, a viability, T/C (second compound 3.16 µM, first compound 0.03 µM) of 96.2% and a viability, T/C (second compound 3.16 µM, first compound 0.0949 µM) of 90.9%. For the same compound, the viability, T/C (second compound 3.16 µM, first compound 0.3 µM) was 91.3%, the viability, T/C (second compound 3.16 µM, first compound 0.949 µM) was 77% and the viability, T/C (second compound 3.16 µM, first compound 3 µM) was 48.9%. The viability, T/C (second compound 10 µM, first compound 0.00949 µM) was 99.1%, the viability, T/C (second compound 10 µM, first compound 0.03 µM) was 92.4% and the viability, T/C (second compound 10 µM, first compound 0.0949 µM) was 86.9%. For the same compound, the viability, T/C (second compound 10 µM, first compound 0.3 µM) was 85.2%, the viability, T/C (second compound 10 µM, first compound 0.949 µM) was 66.5% and the viability, T/C (second compound 10 µM, first compound 3 µM) was 33%.
